Patent US20220378811A1, “VENETOCLAX DOSING REGIMENS FOR USE IN TREATING MYELODYSPLASTIC SYNDROMES IN COMBINATION WITH AZACITIDINE” (ABBVIE INC., priority 2021, published 2022)

Experiment: Phase 1b study in previously untreated higher-risk MDS: dose administration, dose reductions and cycle delays in SE1 and SE2
Assay type: in vivo, human
Conditions: for # of reductions in Venetoclax duration: reductions due to hematologic toxicity
Experimental: Responses were evaluated using IWG 2006 criteria.
Subjects who initiate a cycle of treatment with neutropenia, absolute neutrophil count <1.5×10^9/L, or thrombocytopenia, platelets <75×10^9/L, may be especially sensitive to cytopenias due to abnormal hematopoiesis resulting from the underlying […]. […] However, subjects who initiate a cycle of treatment with absolute neutrophil count 1.5×10^9/L and platelets 75×10^9/L and have a previous response of complete remission, partial remission, or marrow complete remission may require dose reduction, if subsequent absolute neutrophil count nadir <0.500×10^9/L, or platelets nadir <50×10^9/L, if baseline was >100×10^9/L, or platelets <50% if baseline was ≤100×10^9/L.

CC1(C)CCC(CN2CCN(c3ccc(C(=O)NS(=O)(=O)c4ccc(NCC5CCOCC5)c([N+](=O)[O-])c4)c(Oc4cnc5[nH]ccc5c4)c3)CC2)=C(c2ccc(Cl)cc2)C1 [Venetoclax, 4-(4-{[2-(4-chlorophenyl)-4,4-dimethylcyclohex-1-en-1-yl]methyl}piperazin-1-yl)-N-({3nitro-4-[(tetrahydro-2H-pyran-4-ylmethyl)amino]phenyl}sulfonyl)-2-(1H-pyrrolo[2,3-b]pyridin5-yloxy)benzamide]
Venetoclax dose delay by end of Cycle 2, Median # days (SE1, n = 22): 7.5 days
Venetoclax dose delay by end of Cycle 3, Median # days (SE1, n = 22): 14 days
Venetoclax dose delay by end of Cycle 4, Median # days (SE1, n = 22): 17 days
Venetoclax dose delay by end of Cycle 5, Median # days (SE1, n = 22): 14 days
Venetoclax dose delay by end of Cycle 6, Median # days (SE1, n = 22): 7 days
# of reductions in Venetoclax duration (SE1, n = 22): 3 (14)
Venetoclax dose delay by end of Cycle 2, Median # days (SE2, n = 21): 8 days
Venetoclax dose delay by end of Cycle 3, Median # days (SE2, n = 21): 8.5 days
Venetoclax dose delay by end of Cycle 4, Median # days (SE2, n = 21): 9 days
Venetoclax dose delay by end of Cycle 5, Median # days (SE2, n = 21): 14 days
Venetoclax dose delay by end of Cycle 6, Median # days (SE2, n = 21): 14 days
# of reductions in Venetoclax duration (SE2, n = 21): 0
